{"source": "patent US20160002204A1", "about": "(Board of Regents, The University of Texas System, priority 2014, published 2016)", "key": {"A549 cells": {"tested_on": "A549 cells", "test": "A549 proliferation (viability) assay, Cell Titer Fluor, 72 hours", "type": "cell-based", "settings": "Homo sapiens", "how_it_was_run": "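Compound was added to A549 cells (1000/well, pre-grown 24 h in RPMI 1640 plus 10% dialyzed FBS) at 0.5% DMSO and left 72 h under 37 °C, 5% CO2, ambient O2. Live-cell fluorescence (Cell Titer Fluor) gave the EC50.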"}, "[1]": {"target": "T1, GLS1 (purified recombinant human GAC) (Homo sapiens, UniProt O94925)", "T1 sequence (O94925 55-598 isoform O94925-3 limits assumed)": "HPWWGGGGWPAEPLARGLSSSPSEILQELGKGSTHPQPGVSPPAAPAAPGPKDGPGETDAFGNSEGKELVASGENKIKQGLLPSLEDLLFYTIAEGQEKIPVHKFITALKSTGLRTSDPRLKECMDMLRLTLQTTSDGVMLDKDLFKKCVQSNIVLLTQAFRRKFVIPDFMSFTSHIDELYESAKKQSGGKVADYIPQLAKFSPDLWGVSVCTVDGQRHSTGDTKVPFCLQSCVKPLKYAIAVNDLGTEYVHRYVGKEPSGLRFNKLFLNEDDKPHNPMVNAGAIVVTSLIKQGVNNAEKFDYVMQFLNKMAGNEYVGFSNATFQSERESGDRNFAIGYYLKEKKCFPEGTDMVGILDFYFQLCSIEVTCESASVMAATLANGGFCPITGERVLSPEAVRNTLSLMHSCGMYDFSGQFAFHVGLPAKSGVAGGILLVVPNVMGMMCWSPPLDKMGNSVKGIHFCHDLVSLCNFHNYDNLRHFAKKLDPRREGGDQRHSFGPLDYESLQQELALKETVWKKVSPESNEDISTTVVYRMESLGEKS", "test": "GLS1 enzymatic activity assay (dual-coupled, Amplex UltraRed/resorufin)", "type": "biochemical", "how_it_was_run": "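In this coupled fluorometric format, phosphate-activated GAC (2 nM, 50 mM phosphate) is pre-exposed to compound for 10 min before 1 mM glutamine addition. Product is tracked as resorufin (530/590 nm) over time or at 20 min, and potency is derived by logistic fitting.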"}}, "data": [{"smiles": "CS(=O)(=O)N1CCC(CC(=O)Nc2ccn(CCC(F)Cn3cc(C(=O)NCc4cccc(OC(F)(F)F)c4)nn3)c(=O)c2F)CC1", "note": "(stereo not shown) [Example 302, 1-(2-fluoro-4-{3-fluoro-4-[2-(1-methanesulfonylpiperidin-4-yl)acetamido]-2-oxo-1,2-dihydropyridin-1-yl}butyl)-N-{[3-(trifluoromethoxy)phenyl]methyl}-1H-1,2,3-triazole-4-carboxamide]", "values": [{"measurement": "EC50", "setting": "A549 cells", "result": "0.1 to 0.5", "unit": "µM"}, {"measurement": "IC50", "setting": "[1]", "result": "< 0.1", "unit": "µM"}]}, {"smiles": "Cc1ccc(CNC(=O)c2cn(CC(F)CCn3ccc(NC(=O)CC4CCCC4)c(F)c3=O)nn2)cn1", "note": "(stereo not shown) [Example 303, 1-{4-[4-(2-cyclopentylacetamido)-3-fluoro-2-oxo-1,2-dihydropyridin-1-yl]-2-fluorobutyl}-N-[(6-methylpyridin-3-yl)methyl]-1H-1,2,3-triazole-4-carboxamide]", "values": [{"measurement": "EC50", "setting": "A549 cells", "result": "< 0.1", "unit": "µM"}, {"measurement": "IC50", "setting": "[1]", "result": "< 0.1", "unit": "µM"}]}, {"smiles": "Cc1ccc(CNC(=O)c2cn(CC(F)CCn3ccc(NC(=O)CC4CCC4)c(F)c3=O)nn2)cn1", "note": "(stereo not shown) [Example 304, 1-(4-(4-(2-cyclobutylacetamido)-3-fluoro-2-oxopyridin-1(2H)-yl)-2-fluorobutyl)-N-((6-methylpyridin-3-yl)methyl)-1H-1,2,3-triazole-4-carboxamide]", "values": [{"measurement": "EC50", "setting": "A549 cells", "result": "< 0.1", "unit": "µM"}, {"measurement": "IC50", "setting": "[1]", "result": "< 0.1", "unit": "µM"}]}, {"smiles": "CC(=O)OC(C(=O)Nc1ccn(CC[C@H](F)Cn2cc(C(=O)NCc3cccc(OC(F)(F)F)c3)nn2)c(=O)c1F)c1ccccc1", "note": "(stereo partly drawn) [Example 305, (S)-[(3-fluoro-1-{3-fluoro-4-[4-({[3-(trifluoromethoxy)phenyl]methyl}carbamoyl)-1H-1,2,3-triazol-1-yl]butyl}-2-oxo-1,2-dihydropyridin-4-yl)carbamoyl](phenyl)methyl acetate]", "values": [{"measurement": "EC50", "setting": "A549 cells", "result": "< 0.1", "unit": "µM"}, {"measurement": "IC50", "setting": "[1]", "result": "< 0.1", "unit": "µM"}]}, {"smiles": "Cc1ccc(CNC(=O)c2cn(CC(F)CCn3ccc(NC(=O)Cc4ccccc4)c(F)c3=O)nn2)cn1", "note": "(stereo not shown) [Example 307, 1-{2-fluoro-4-[3-fluoro-2-oxo-4-(2-phenylacetamido)-1,2-dihydropyridin-1-yl]butyl}-N-[(6-methylpyridin-3-yl)methyl]-1H-1,2,3-triazole-4-carboxamide]", "values": [{"measurement": "EC50", "setting": "A549 cells", "result": "0.1 to 0.5", "unit": "µM"}, {"measurement": "IC50", "setting": "[1]", "result": "< 0.1", "unit": "µM"}]}, {"smiles": "O=C(CN1CCN(C(=O)CC(F)(F)F)CC1)Nc1ccn(CCC(F)Cn2cc(C(=O)NCc3cccc(OC(F)(F)F)c3)nn2)c(=O)c1F", "note": "(stereo not shown) [Example 308, 1-[2-fluoro-4-(3-fluoro-2-oxo-4-{2-[4-(3,3,3-trifluoropropanoyl)piperazin-1-yl]acetamido}-1,2-dihydropyridin-1-yl)butyl]-N-{[3-(trifluoromethoxy)phenyl]methyl}-1H-1,2,3-triazole-4-carboxamide]", "values": [{"measurement": "EC50", "setting": "A549 cells", "result": "0.1 to 0.5", "unit": "µM"}, {"measurement": "IC50", "setting": "[1]", "result": "< 0.1", "unit": "µM"}]}, {"smiles": "CO[C@H](C(=O)Nc1ccn(CC(F)CCn2cc(C(=O)NCc3cccc(OC(F)(F)F)c3)nn2)c(=O)c1F)c1ccccc1", "note": "(stereo partly drawn) [Example 309, 1-(3-fluoro-4-{3-fluoro-4-[(2S)-2-methoxy-2-phenylacetamido]-2-oxo-1,2-dihydropyridin-1-yl}butyl)-N-{[3-(trifluoromethoxy)phenyl]methyl}-1H-1,2,3-triazole-4-carboxamide]", "values": [{"measurement": "EC50", "setting": "A549 cells", "result": "0.5 to 5", "unit": "µM"}, {"measurement": "IC50", "setting": "[1]", "result": "0.5 to 5", "unit": "µM"}]}, {"smiles": "CO[C@@H](C(=O)Nc1ccn(CC(F)CCn2cc(C(=O)NCc3cccc(OC(F)(F)F)c3)nn2)c(=O)c1F)c1ccccc1", "note": "(stereo partly drawn) [Example 310, 1-(3-fluoro-4-{3-fluoro-4-[(2R)-2-methoxy-2-phenylacetamido]-2-oxo-1,2-dihydropyridin-1-yl}butyl)-N-{[3-(trifluoromethoxy)phenyl]methyl}-1H-1,2,3-triazole-4-carboxamide]", "values": [{"measurement": "EC50", "setting": "A549 cells", "result": "0.5 to 5", "unit": "µM"}, {"measurement": "IC50", "setting": "[1]", "result": "0.5 to 5", "unit": "µM"}]}, {"smiles": "CCOC(=O)c1cn(CC(F)CCn2ccc(NC(=O)OC(C)(C)C)c(F)c2=O)nn1", "note": "(stereo not shown) [Example 311, ethyl 1-[4-(4-{[(tert-butoxy)carbonyl]amino}-3-fluoro-2-oxo-1,2-dihydropyridin-1-yl)-2-fluorobutyl]-1H-1,2,3-triazole-4-carboxylate]", "values": [{"measurement": "EC50", "setting": "A549 cells", "result": "> 5", "unit": "µM"}, {"measurement": "IC50", "setting": "[1]", "result": "0.5 to 5", "unit": "µM"}]}, {"smiles": "CO[C@H](C(=O)Nc1ccn(CCC(F)Cn2cc(C(=O)NCc3ccc(C)nc3)nn2)c(=O)c1F)c1ccccc1", "note": "(stereo partly drawn) [Example 312, 1-(2-fluoro-4-{3-fluoro-4-[(2S)-2-methoxy-2-phenylacetamido]-2-oxo-1,2-dihydropyridin-1-yl}butyl)-N-[(6-methylpyridin-3-yl)methyl]-1H-1,2,3-triazole-4-carboxamide]", "values": [{"measurement": "EC50", "setting": "A549 cells", "result": "0.1 to 0.5", "unit": "µM"}, {"measurement": "IC50", "setting": "[1]", "result": "< 0.1", "unit": "µM"}]}, {"smiles": "CO[C@@H](C(=O)Nc1ccn(CCC(F)Cn2cc(C(=O)NCc3ccc(C)nc3)nn2)c(=O)c1F)c1ccccc1", "note": "(stereo partly drawn) [Example 313, 1-(2-fluoro-4-{3-fluoro-4-[(2R)-2-methoxy-2-phenylacetamido]-2-oxo-1,2-dihydropyridin-1-yl}butyl)-N-[(6-methylpyridin-3-yl)methyl]-1H-1,2,3-triazole-4-carboxamide]", "values": [{"measurement": "EC50", "setting": "A549 cells", "result": "0.1 to 0.5", "unit": "µM"}, {"measurement": "IC50", "setting": "[1]", "result": "< 0.1", "unit": "µM"}]}, {"smiles": "CC(C)(C)OC(=O)N1CCC(CC(=O)Nc2ccn(CC(F)CCn3cc(C(=O)NCc4cccc(OC(F)(F)F)c4)nn3)c(=O)c2F)CC1", "note": "(stereo not shown) [Example 314, tert-butyl 4-{[(3-fluoro-1-{2-fluoro-4-[4-({[3-(trifluoro-methoxy)phenyl]methyl}carbamoyl)-1H-1,2,3-triazol-1-yl]butyl}-2-oxo-1,2-dihydropyridin-4-yl)carbamoyl]methyl}piperidine-1-carboxylate]", "values": [{"measurement": "EC50", "setting": "A549 cells", "result": "0.1 to 0.5", "unit": "µM"}, {"measurement": "IC50", "setting": "[1]", "result": "0.5 to 5", "unit": "µM"}]}, {"smiles": "O=C(Nc1ccn(CCC(F)Cn2cc(C(=O)NCc3cccc(OC(F)(F)F)c3)nn2)c(=O)c1F)C(=O)c1ccccc1", "note": "(stereo not shown) [Example 315, 1-{2-fluoro-4-[3-fluoro-2-oxo-4-(2-oxo-2-phenylacetamido)-1,2-dihydropyridin-1-yl]butyl}-N-{[3-(trifluoromethoxy)phenyl]methyl}-1H-1,2,3-triazole-4-carboxamide]", "values": [{"measurement": "EC50", "setting": "A549 cells", "result": "< 0.1", "unit": "µM"}, {"measurement": "IC50", "setting": "[1]", "result": "< 0.1", "unit": "µM"}]}, {"smiles": "CC(C(=O)Nc1ccn(CCC(F)Cn2cc(C(=O)NCc3cccc(OC(F)(F)F)c3)nn2)c(=O)c1F)c1ccccc1", "note": "(stereo not shown) [Example 316, 1-{2-fluoro-4-[3-fluoro-2-oxo-4-(2-phenylpropanamido)-1,2-dihydropyridin-1-yl]butyl}-N-{[3-(trifluoromethoxy)phenyl]methyl}-1H-1,2,3-triazole-4-carboxamide]", "values": [{"measurement": "EC50", "setting": "A549 cells", "result": "< 0.1", "unit": "µM"}, {"measurement": "IC50", "setting": "[1]", "result": "< 0.1", "unit": "µM"}]}, {"smiles": "O=C(Cc1ccccc1)Nc1ccn(CCC(F)Cn2cc(C(=O)NCc3cccc(C(F)(F)F)n3)nn2)c(=O)c1F", "note": "(stereo not shown) [Example 317, 1-{2-fluoro-4-[3-fluoro-2-oxo-4-(2-phenylacetamido)-1,2-dihydropyridin-1-yl]butyl}-N-{[6-(trifluoromethyl)pyridin-2-yl]methyl}-1H-1,2,3-triazole-4-carboxamide]", "values": [{"measurement": "EC50", "setting": "A549 cells", "result": "< 0.1", "unit": "µM"}, {"measurement": "IC50", "setting": "[1]", "result": "< 0.1", "unit": "µM"}]}, {"smiles": "O=C(CC1CCCC1)Nc1ccn(CCC(F)Cn2cc(C(=O)NCc3cccc(C(F)(F)F)n3)nn2)c(=O)c1F", "note": "(stereo not shown) [Example 318, 1-{4-[4-(2-cyclopentylacetamido)-3-fluoro-2-oxo-1,2-dihydropyridin-1-yl]-2-fluorobutyl}-N-{[6-(trifluoromethyl)pyridin-2-yl]methyl}-1H-1,2,3-triazole-4-carboxamide]", "values": [{"measurement": "EC50", "setting": "A549 cells", "result": "< 0.1", "unit": "µM"}, {"measurement": "IC50", "setting": "[1]", "result": "< 0.1", "unit": "µM"}]}, {"smiles": "CC(C)(C)OC(=O)Nc1ccn(CCC(F)Cn2cc(C(=O)NCc3cc(C(F)(F)F)ccn3)nn2)c(=O)c1F", "note": "(stereo not shown) [Example 320, tert-butyl N-(3-fluoro-1-{3-fluoro-4-[4-({[4-(trifluoromethyl)pyridin-2-yl]methyl}carbamoyl)-1H-1,2,3-triazol-1-yl]butyl}-2-oxo-1,2-dihydropyridin-4-yl)carbamate]", "values": [{"measurement": "EC50", "setting": "A549 cells", "result": "0.1 to 0.5", "unit": "µM"}, {"measurement": "IC50", "setting": "[1]", "result": "0.1 to 0.5", "unit": "µM"}]}, {"smiles": "O=C(Cc1ccccc1)Nc1ccn(CCC(F)Cn2cc(C(=O)NCc3cc(C(F)(F)F)ccn3)nn2)c(=O)c1F", "note": "(stereo not shown) [Example 323, 1-{2-fluoro-4-[3-fluoro-2-oxo-4-(2-phenylacetamido)-1,2-dihydropyridin-1-yl]butyl}-N-{[4-(trifluoromethyl)pyridin-2-yl]methyl}-1H-1,2,3-triazole-4-carboxamide]", "values": [{"measurement": "EC50", "setting": "A549 cells", "result": "< 0.1", "unit": "µM"}, {"measurement": "IC50", "setting": "[1]", "result": "< 0.1", "unit": "µM"}]}, {"smiles": "CCOC(=O)N1CCC(CC(=O)Nc2ccn(CCC(F)Cn3cc(C(=O)NCc4cc(C(F)(F)F)ccn4)nn3)c(=O)c2F)CC1", "note": "(stereo not shown) [Example 324, ethyl 4-{[(3-fluoro-1-{3-fluoro-4-[4-({[4-(trifluoromethyl)pyridin-2-yl]methyl}carbamoyl)-1H-1,2,3-triazol-1-yl]butyl}-2-oxo-1,2-dihydropyridin-4-yl)carbamoyl]methyl}piperidine-1-carboxylate]", "values": [{"measurement": "EC50", "setting": "A549 cells", "result": "< 0.1", "unit": "µM"}, {"measurement": "IC50", "setting": "[1]", "result": "< 0.1", "unit": "µM"}]}, {"smiles": "CC(=O)OC(C(=O)Nc1ccn(CC[C@H](F)Cn2cc(C(=O)NCc3cc(C(F)(F)F)ccn3)nn2)c(=O)c1F)c1ccccc1", "note": "(stereo partly drawn) [Example 325, (S)-[(3-fluoro-1-{3-fluoro-4-[4-({[4-(trifluoromethyl)pyridin-2-yl]methyl}carbamoyl)-1H-1,2,3-triazol-1-yl]butyl}-2-oxo-1,2-dihydropyridin-4-yl)carbamoyl](phenyl)methyl acetate]", "values": [{"measurement": "EC50", "setting": "A549 cells", "result": "< 0.1", "unit": "µM"}, {"measurement": "IC50", "setting": "[1]", "result": "< 0.1", "unit": "µM"}]}]}
